Assay results: publication PMC8584173, “The Cytotoxic Effect of Copper (II) Complexes with Halogenated 1,3-Disubstituted Arylthioureas on Cancer and Bacterial Cells” (International Journal of Molecular Sciences, 2021)

Legend:
[1] = tested on: SW480 (human primary colon cancer); experiment: MTT cytotoxicity assay, SW480; assay type: cell-based; details: SW480, 72 h
Protocol: (§1) The human primary (SW480), metastatic (SW620) colon cancer, metastatic prostate cancer (PC3) and human immortal keratinocyte (HaCaT) cell lines were purchased from the American Type Culture Collection (ATCC, Rockville, USA). The cells were cultured in medium according to protocols (MEM for SW480 and SW620, RPMI 1640 for PC3 and DMEM for HaCaT cells) supplemented with 10% fetal bovine serum (FBS), penicillin (100 U/mL) and streptomycin (100 μg/mL) and cultured in 37 °C/ 5% CO2 humidified incubator. The cells were cultured until appropriate confluence was achieved (80–90%). Next, they were harvested by treatment with 0.25% trypsin (Gibco Life Technologies, USA) and used for studies.
(§2) Cells without studied compounds in medium were used as a control.
(§3) The cell viability was assessed by determination of MTT salt (3-(4,5-dimethylthiazol-2-yl)-2,5-diphenyltetrazolium bromide) conversion by mitochondrial dehydrogenase. MTT assay was performed as previously described. Experiments were repeated three times. Cell viability was presented as a percentage of MTT reduction in the treated cells versus the control cells. Number of viable cells cultured without studied compounds was assumed to be 100%. Decreased relative MTT level means decreased cell viability. Thiourea complexes with the highest cytotoxic potential assessed by MTT determination (with the lowest IC50) were chosen for subsequent assessments of cytotoxicity mechanisms.

[2] = tested on: S. epidermidis 432; experiment: MIC, hospital MRSE strain; assay type: cell-based, Staphylococcus epidermidis; details: hospital MRSE S. epidermidis 432
Protocol: (§4) The antimicrobial activity of the compounds was tested on Gram-positive bacteria (Staphylococcus aureus NCTC 4163, Staphylococcus aureus ATCC 25923, Staphylococcus aureus ATCC 6538, Staphylococcus aureus ATCC 29213, Staphylococcus epidermidis ATCC 12228, Staphylococcus epidermidis ATCC 35984), Gram-negative rods (Escherichia coli ATCC 10538, Escherichia coli ATCC 25922, Pseudomonas aeruginosa ATCC 15442, Pseudomonas aeruginosa ATCC 27863) and yeasts (Candida albicans ATCC 10231, Candida albicans ATCC 90028, Candida parapsilosis ATCC 22019). Hospital methicillin-resistant strains of Staphylococcus aureus and Staphylococcus epidermidis were obtained from the collection of the Department of Pharmaceutical Microbiology, Medical University of Warsaw, Poland.
(§5) Antifungal activities were assessed using Mueller–Hinton agar + 2% glucose and 0.5 µg/mL methylene blue dye medium. Sterile filter paper discs (9 mm diameter, Whatman Number 3 chromatography paper) were dripped with tested compound solutions (in dimethylsulfoxide, DMSO) to load 400 μg of a given compound per disc. Dry discs were placed on the surface of appropriate agar medium. The results (diameter of the growth inhibition zone) were read after 18 h of incubation at 35 °C. Minimal inhibitory concentration (MIC) was tested by the twofold serial microdilution method (in 96-well microtiter plates) using Mueller–Hinton broth medium (Beckton Dickinson) for bacteria or RPMI-1640 medium for Candida species, according to CLSI guidelines. The stock solution of tested agent was prepared in DMSO and diluted in sterile water. […] The final inoculum of all studied microorganisms was 10^5 CFU/ mL^−1 (colony forming units per ml). Minimal inhibitory concentrations (the lowest concentration of a tested agent that prevents visible growth of a microorganism) were read after 18 h (bacteria) or 24 h (yeasts) of incubation at 35 °C.

[3] = tested on: S. epidermidis 513; experiment: MIC, hospital MRSE strain; assay type: cell-based, Staphylococcus epidermidis; details: hospital MRSE S. epidermidis 513
Protocol: as §4, §5

[4] = tested on: S. epidermidis 435; experiment: MIC, hospital MRSE strain; assay type: cell-based, Staphylococcus epidermidis; details: hospital MRSE S. epidermidis 435
Protocol: as §4, §5

[5] = tested on: S. epidermidis 510; experiment: MIC, hospital MRSE strain; assay type: cell-based, Staphylococcus epidermidis; details: hospital MRSE S. epidermidis 510
Protocol: as §4, §5

[6] = tested on: S. epidermidis 515; experiment: MIC, hospital MRSE strain; assay type: cell-based, Staphylococcus epidermidis; details: hospital MRSE S. epidermidis 515
Protocol: as §4, §5

[7] = tested on: S. epidermidis 431; experiment: MIC, hospital MRSE strain; assay type: cell-based, Staphylococcus epidermidis; details: hospital MRSE S. epidermidis 431
Protocol: as §4, §5

[8] = tested on: S. epidermidis 433; experiment: MIC, hospital MRSE strain; assay type: cell-based, Staphylococcus epidermidis; details: hospital MRSE S. epidermidis 433
Protocol: as §4, §5

[9] = tested on: S. epidermidis 471; experiment: MIC, hospital MRSE strain; assay type: cell-based, Staphylococcus epidermidis; details: hospital MRSE S. epidermidis 471
Protocol: as §4, §5

[10] = tested on: S. epidermidis 469; experiment: MIC, hospital MRSE strain; assay type: cell-based, Staphylococcus epidermidis; details: hospital MRSE S. epidermidis 469
Protocol: as §4, §5

[11] = tested on: S. epidermidis 437; experiment: MIC, hospital MRSE strain; assay type: cell-based, Staphylococcus epidermidis; details: hospital MRSE S. epidermidis 437
Protocol: as §4, §5

[12] = tested on: S. epidermidis 438; experiment: MIC, hospital MRSE strain; assay type: cell-based, Staphylococcus epidermidis; details: hospital MRSE S. epidermidis 438
Protocol: as §4, §5

[13] = tested on: S. epidermidis 424; experiment: MIC, hospital MRSE strain; assay type: cell-based, Staphylococcus epidermidis; details: hospital MRSE S. epidermidis 424
Protocol: as §4, §5

[14] = tested on: S. epidermidis 511; experiment: MIC, hospital MRSE strain; assay type: cell-based, Staphylococcus epidermidis; details: hospital MRSE S. epidermidis 511
Protocol: as §4, §5

[15] = tested on: PC3 (human metastatic prostate cancer); experiment: MTT cytotoxicity assay, PC3; assay type: cell-based; details: for IC50: PC3, 72 h, MTT; for fold more active than cisplatin: PC3 cell lines
Protocol: as §1, §2, §3

[16] = tested on: S. aureus 522; experiment: MIC, hospital MRSA strain; assay type: cell-based, Staphylococcus aureus; details: hospital MRSA S. aureus 522
Outline: (§6)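 Twofold serial broth microdilution per CLSI, in Mueller–Hinton broth for bacteria and RPMI-1640 for Candida, with a final inoculum of 10^5 CFU/mL. Compounds were dissolved in DMSO and diluted in sterile water.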

[17] = tested on: S. aureus 573; experiment: MIC, hospital MRSA strain; assay type: cell-based, Staphylococcus aureus; details: hospital MRSA S. aureus 573
Outline: as §6

[18] = tested on: S. aureus 498; experiment: MIC, hospital MRSA strain; assay type: cell-based, Staphylococcus aureus; details: hospital MRSA S. aureus 498
Outline: as §6

[19] = tested on: S. aureus 585; experiment: MIC, hospital MRSA strain; assay type: cell-based, Staphylococcus aureus; details: hospital MRSA S. aureus 585
Outline: as §6

[20] = tested on: S. aureus 481; experiment: MIC, hospital MRSA strain; assay type: cell-based, Staphylococcus aureus; details: for MIC: hospital MRSA S. aureus 481; for times more active than ciprofloxacin: S. aureus 481
Outline: as §6

[21] = tested on: S. aureus 496; experiment: MIC, hospital MRSA strain; assay type: cell-based, Staphylococcus aureus; details: hospital MRSA S. aureus 496
Outline: as §6

[22] = tested on: S. aureus 568; experiment: MIC, hospital MRSA strain; assay type: cell-based, Staphylococcus aureus; details: hospital MRSA S. aureus 568
Outline: as §6

[23] = tested on: S. aureus 514; experiment: MIC, hospital MRSA strain; assay type: cell-based, Staphylococcus aureus; details: hospital MRSA S. aureus 514
Outline: as §6

[24] = tested on: C. parapsilosis ATCC 22019; experiment: MIC, twofold serial microdilution; assay type: cell-based, Candida parapsilosis; details: C. parapsilosis ATCC 22019, 24 h, 35 °C
Protocol: as §4, §5

| SMILES | IC50 [1] | MIC [2] | MIC [3] | MIC [4] | MIC [5] | MIC [6] | MIC [7] | MIC [8] | MIC [9] | MIC [10] | MIC [11] | MIC [12] | MIC [13] | MIC [14] | IC50 [15] | MIC [16] | MIC [17] | MIC [18] | MIC [19] | MIC [20] | other results |
| --- | --- | --- | --- | --- | --- | --- | --- | --- | --- | --- | --- | --- | --- | --- | --- | --- | --- | --- | --- | --- | --- |
| O=[N+]([O-])c1cc(NC2=[N+](c3ccc(Cl)c([N+](=O)[O-])c3)[Cu-2]3([S]2)[S]C(Nc2ccc(Cl)c([N+](=O)[O-])c2)=[N+]3c2ccc(Cl)c([N+](=O)[O-])c2)ccc1Cl [Compound 6, Copper (II) complex with 1,3-bis(4-chloro-3-nitrophenyl)thiourea] | 26.8 ± 2.3 µM | 64 µg/mL | 64 µg/mL | 128 µg/mL | 64 µg/mL | 64 µg/mL | 64 µg/mL | 64 µg/mL | 64 µg/mL | 64 µg/mL | 128 µg/mL | 128 µg/mL | 64 µg/mL | 64 µg/mL | 20.3 ± 3.1 µM | 32 µg/mL | 32 µg/mL | 32 µg/mL | 32 µg/mL | 32 µg/mL | MIC [21]: 32 µg/mL; MIC [22]: 32 µg/mL; MIC [23]: 32 µg/mL; MIC [24]: 64 µg/mL |
| O=[N+]([O-])c1cc([N+]2=C(Nc3ccccc3F)[S][Cu-2]23[S]C(Nc2ccccc2F)=[N+]3c2ccc(Cl)c([N+](=O)[O-])c2)ccc1Cl [Compound 7, Copper (II) complex with 1-(2-fluorophenyl)-3-(4-chloro-3-nitrophenyl)thiourea] | 15.5 ± 2.6 µM | 8 µg/mL | 8 µg/mL | 8 µg/mL | 8 µg/mL | 8 µg/mL | 8 µg/mL | 8 µg/mL | 8 µg/mL | 8 µg/mL | 8 µg/mL | 8 µg/mL | 8 µg/mL | 8 µg/mL | 10.8 ± 1.3 µM | 8 µg/mL | 8 µg/mL | 4 µg/mL | 8 µg/mL | 4 µg/mL | fold more active than cisplatin [15]: 1.2–3.1 fold; times more active than ciprofloxacin [20]: 64 times; MIC [21]: 8 µg/mL; MIC [22]: 8 µg/mL; MIC [23]: 8 µg/mL; MIC [24]: 128 µg/mL |
| O=[N+]([O-])c1cc([N+]2=C(Nc3ccc(I)cc3)[S][Cu-2]23[S]C(Nc2ccc(I)cc2)=[N+]3c2ccc(Cl)c([N+](=O)[O-])c2)ccc1Cl [Compound 8, Copper (II) complex with 1-(4-iodophenyl)-3-(4-chloro-3-nitrophenyl)thiourea] | 3.9 ± 0.8 µM | 8 µg/mL | 8 µg/mL | 8 µg/mL | 8 µg/mL | 8 µg/mL | 8 µg/mL | 4 µg/mL | 8 µg/mL | 8 µg/mL | 8 µg/mL | 8 µg/mL | 8 µg/mL | 8 µg/mL | 4.3 ± 0.5 µM | 4 µg/mL | 8 µg/mL | 8 µg/mL | 8 µg/mL | 4 µg/mL | fold more active than cisplatin [15]: 1.2–3.1 fold; times more active than ciprofloxacin [20]: 64 times; MIC [21]: 8 µg/mL; MIC [22]: 8 µg/mL; MIC [23]: 4 µg/mL; MIC [24]: 64 µg/mL |
